Laboratory results as given in paper PMC3288053 (PLoS ONE, 2012).

What was measured:
[1] = target: T1, PPARγ:RXRα (Homo sapiens, UniProt P19793+P37231); assay: Transient transfection luciferase assay in HEK293 cells (PPRE); assay type: cell-based; settings: HEK293, 24 h
T1 construct: expressed in transfected cells; host or cells: HEK293
Procedure: (§1) HEK293 cells are transiently transfected by Lipo2000 respectively with RXRα, PPARγ, FXR, and LXRα plasmids plus pGL3-RXRE luciferase vector and renilla luciferase vector for 5 hours. Cells are then incubated with indicated concentrations of compounds for another 24 h and finally lysed. Luciferase activities are measured using Dual Luciferase Assay System kit. Rut dose-dependently activates (a) RXRα:RXRα and (b) PPARγ:RXRα activities. Rut has no effects on (c) FXR: RXRα and (d) LXRα:RXRα activities. Data are presented as means ± s.e.m (*P<0.05, **P<0.01) from three independent experiments.
(§2) HEK293 cells are transfected with luciferase reporter plus Renilla luciferase vector and other plasmids if needed for 5 hours, and cells are then incubated with indicated concentrations of compounds for another 24 h. Finally cells are lysed and luciferase activities are measured using Dual Luciferase Assay System kit. The results are presented as the fold activation relative to untreated cells after normalization with Renilla luciferase values. Each experiment is repeated at least twice, with each sample analyzed in triplicates.

[2] = target: T2, RXRα:RXRα (Homo sapiens, UniProt P19793); assay: Transient transfection luciferase assay in HEK293 cells (RXRE); assay type: cell-based; settings: HEK293, 24 h
T2 construct: expressed in transfected cells; host or cells: HEK293
T2 sequence (P19793 whole entry): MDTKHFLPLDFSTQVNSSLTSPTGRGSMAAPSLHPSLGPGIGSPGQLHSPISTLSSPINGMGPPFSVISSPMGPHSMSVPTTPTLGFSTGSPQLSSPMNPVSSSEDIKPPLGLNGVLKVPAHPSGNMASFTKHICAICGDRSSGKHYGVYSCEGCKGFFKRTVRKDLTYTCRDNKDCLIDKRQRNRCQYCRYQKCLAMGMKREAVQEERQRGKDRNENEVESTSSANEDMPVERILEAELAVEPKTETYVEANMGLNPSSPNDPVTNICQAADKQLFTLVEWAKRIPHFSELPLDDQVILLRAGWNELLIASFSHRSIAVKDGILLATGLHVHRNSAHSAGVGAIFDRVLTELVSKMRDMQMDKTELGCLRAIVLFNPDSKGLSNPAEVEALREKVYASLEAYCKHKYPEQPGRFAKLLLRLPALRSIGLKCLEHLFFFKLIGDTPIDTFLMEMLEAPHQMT
Procedure: as §1, §2

[3] = target: T3, PTP1B (Homo sapiens, UniProt P18031); assay: PTP enzyme inhibition assay (pNPP substrate); assay type: biochemical
T3 construct: pGEX4T-1-PTP1B1–321; GST (N); made in house; host or cells: E. coli BL21 (DE3)
T3 sequence (P18031 1-321): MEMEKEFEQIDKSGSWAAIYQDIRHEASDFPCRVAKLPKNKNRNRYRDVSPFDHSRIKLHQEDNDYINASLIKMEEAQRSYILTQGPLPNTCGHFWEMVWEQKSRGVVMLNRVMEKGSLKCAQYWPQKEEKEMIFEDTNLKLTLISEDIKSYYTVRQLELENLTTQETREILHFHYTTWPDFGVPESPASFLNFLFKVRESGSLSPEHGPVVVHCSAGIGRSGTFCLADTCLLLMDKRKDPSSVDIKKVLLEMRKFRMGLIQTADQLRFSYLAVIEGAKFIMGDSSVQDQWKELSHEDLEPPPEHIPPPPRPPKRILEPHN
Procedure: (§3) The enzymatic activities of the recombinant PTPs are measured at 25°C using pNPP as substrate. The initial velocities of enzymatic reactions are determined by continuously measuring the absorbance at 405 nm every 15 s using a microplate spectrophotometer (Bio-Rad). […] To determine the inhibition type, each concentration of Rut (0, 50 and 75 µM) is incubated with PTP1B (0.3 µM) in reaction buffer (50 mM HEPES, pH7.0, 1 mM EDTA, and 100 mM NaCl) for 10 min and the reactions are initiated by different concentrations of pNPP (0.5–10 mM). The inhibition type is determined using double-reciprocal plots. In determination of the selectivity of Rut against PTPs, the result is referred as no inhibition when 100 µM Rut inhibits no enzyme activity. The same reaction systems are designed for all PTPs including PTP1B.

[4] = target: T4, PTPα (Homo sapiens, UniProt P18433); assay: PTP enzyme inhibition assay (pNPP substrate); assay type: biochemical; settings: read-out: IC50 PTPα; PTPs 0.3 µM, pNPP 5 mM, 25°C; NI: No inhibition at 100 µM
T4 construct: pGEX2T-PTPα182–803; GST (N); made in house; host or cells: E. coli BL21 (DE3)
Procedure: as §3

[5] = target: T5, LAR (Homo sapiens, UniProt P10586); assay: PTP enzyme inhibition assay (pNPP substrate); assay type: biochemical; settings: read-out: IC50 LAR; PTPs 0.3 µM, pNPP 5 mM, 25°C; NI: No inhibition at 100 µM
T5 construct: pGEX2T-LAR1282–1888; GST (N); made in house; host or cells: E. coli BL21 (DE3)
T5 sequence (P10586 1301-1907 limits assumed): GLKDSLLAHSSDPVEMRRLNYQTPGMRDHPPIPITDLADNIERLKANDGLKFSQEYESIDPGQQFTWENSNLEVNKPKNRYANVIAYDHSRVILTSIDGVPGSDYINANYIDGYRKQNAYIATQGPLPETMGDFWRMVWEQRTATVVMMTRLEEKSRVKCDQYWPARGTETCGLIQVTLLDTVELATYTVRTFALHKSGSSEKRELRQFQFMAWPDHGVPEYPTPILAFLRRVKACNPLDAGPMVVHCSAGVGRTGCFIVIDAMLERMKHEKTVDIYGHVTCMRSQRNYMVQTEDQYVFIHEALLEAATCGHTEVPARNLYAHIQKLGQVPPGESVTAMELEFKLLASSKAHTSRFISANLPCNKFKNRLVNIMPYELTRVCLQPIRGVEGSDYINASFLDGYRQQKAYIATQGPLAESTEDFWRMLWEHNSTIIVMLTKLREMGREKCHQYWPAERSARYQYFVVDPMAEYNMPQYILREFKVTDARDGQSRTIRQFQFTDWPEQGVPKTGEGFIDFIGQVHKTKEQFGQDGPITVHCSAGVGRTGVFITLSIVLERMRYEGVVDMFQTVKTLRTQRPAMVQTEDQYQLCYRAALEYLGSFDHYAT
Procedure: as §3

[6] = target: T6, TC-PTP (Homo sapiens, UniProt P17706); assay: PTP enzyme inhibition assay (pNPP substrate); assay type: biochemical; settings: PTPs 0.3 µM, pNPP 5 mM, 25°C; NI: No inhibition at 100 µM
T6 construct: pGEX4T-1-TC-PTP1–288; GST (N); made in house; host or cells: E. coli BL21 (DE3)
T6 sequence (P17706 1-288): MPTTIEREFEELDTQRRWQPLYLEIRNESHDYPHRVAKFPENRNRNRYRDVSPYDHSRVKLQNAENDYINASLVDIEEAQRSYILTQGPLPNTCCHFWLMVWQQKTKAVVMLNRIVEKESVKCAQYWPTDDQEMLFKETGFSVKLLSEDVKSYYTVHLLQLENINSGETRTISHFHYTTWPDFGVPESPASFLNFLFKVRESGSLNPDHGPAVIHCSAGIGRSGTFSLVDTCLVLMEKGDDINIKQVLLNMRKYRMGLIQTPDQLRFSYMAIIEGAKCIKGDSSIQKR
Procedure: as §3

[7] = target: T7, CD45 (Homo sapiens, UniProt P08575); assay: PTP enzyme inhibition assay (pNPP substrate); assay type: biochemical; settings: PTPs 0.3 µM, pNPP 5 mM, 25°C; NI: No inhibition at 100 µM
T7 construct: pGEX2T-CD45_560–1256; GST (N); made in house; host or cells: E. coli BL21 (DE3)
T7 sequence (P08575 610-1306 limits assumed): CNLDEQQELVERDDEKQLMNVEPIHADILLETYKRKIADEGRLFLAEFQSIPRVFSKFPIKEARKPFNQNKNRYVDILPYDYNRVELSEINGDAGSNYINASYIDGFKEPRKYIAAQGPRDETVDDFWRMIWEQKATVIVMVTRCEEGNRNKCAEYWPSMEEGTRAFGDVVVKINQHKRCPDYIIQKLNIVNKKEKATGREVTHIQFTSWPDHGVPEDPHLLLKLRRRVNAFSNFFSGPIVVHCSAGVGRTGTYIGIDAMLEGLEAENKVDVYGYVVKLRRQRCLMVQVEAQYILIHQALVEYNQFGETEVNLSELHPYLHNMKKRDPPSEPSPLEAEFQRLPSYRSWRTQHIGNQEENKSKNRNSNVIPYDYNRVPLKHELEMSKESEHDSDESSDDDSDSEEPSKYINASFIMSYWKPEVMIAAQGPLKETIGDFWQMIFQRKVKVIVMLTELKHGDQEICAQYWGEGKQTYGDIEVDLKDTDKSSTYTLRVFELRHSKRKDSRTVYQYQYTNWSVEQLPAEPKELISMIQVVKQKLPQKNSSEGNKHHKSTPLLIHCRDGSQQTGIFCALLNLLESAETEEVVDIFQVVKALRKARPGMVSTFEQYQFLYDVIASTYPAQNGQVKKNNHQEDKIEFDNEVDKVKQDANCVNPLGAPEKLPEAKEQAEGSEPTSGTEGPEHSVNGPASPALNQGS
Procedure: as §3

[8] = system: GLUT4 promoter; assay: GLUT4 promoter luciferase assay with rxrα or pparγ siRNA; assay type: cell-based; settings: Rut 20 µM
Procedure: as §2

[9] = target: T8, PPARγ-LBD/SRC1_613–773 interaction (Homo sapiens, UniProt P37231); assay: SPR SRC1 recruitment assay; assay type: binding; settings: 1 µM PPARγ-LBD incubated with compound 1 hour
T8 construct: pET15b-PPARγ-LBD202–477; His-tag (N); made in house; host or cells: E. coli BL21 (DE3)
T8 sequence (P37231 230-505): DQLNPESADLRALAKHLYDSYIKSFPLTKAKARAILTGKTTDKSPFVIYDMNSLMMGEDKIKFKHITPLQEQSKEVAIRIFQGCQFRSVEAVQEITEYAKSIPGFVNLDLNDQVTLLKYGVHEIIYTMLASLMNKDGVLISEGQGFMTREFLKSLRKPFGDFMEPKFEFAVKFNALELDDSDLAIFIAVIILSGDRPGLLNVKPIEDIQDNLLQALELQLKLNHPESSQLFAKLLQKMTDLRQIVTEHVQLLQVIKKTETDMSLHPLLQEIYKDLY
T8 sequence (Q15788 613-773 partner limits assumed): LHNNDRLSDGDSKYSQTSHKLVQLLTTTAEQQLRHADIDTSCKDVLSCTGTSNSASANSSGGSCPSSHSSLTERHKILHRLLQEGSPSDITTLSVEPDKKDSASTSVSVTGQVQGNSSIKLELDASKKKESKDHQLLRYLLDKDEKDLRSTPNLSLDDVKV
Procedure: (§4) Binding affinities of Rut towards proteins are analyzed using SPR technology based Biacore 3000 instrument (GE Healthcare). In the assay, proteins are immobilized to CM5 chips using a standard amine-coupling procedure (Biacore manual). The proteins to be covalently bound to the chips are diluted in 10 mM sodium acetate buffer (pH4.5) to a final concentration of 0.10 mg/ml. Before experiments, baseline is equilibrated with a continuous flow of running buffer (10 mM HEPES, 150 mM NaCl, 3 mM EDTA, and 0.005% (v/v) surfactant P20, pH7.4) for 2 hours. Subsequently, Rut with a gradient of concentrations is injected to the channels at a flow rate of 20 µL/min for 60 seconds, followed by disassociation for 120 seconds. The 1∶1 Langmuir binding fitting model in BIAevaluation software version 3.1 (Biacore) is used to determine the equilibrium dissociation constants (K Ds) of compounds. […] Different concentrations of PPARγ-LBD or RXRα-LBD are injected to the channel at a flow rate of 20 µL/min for 60 s, followed by disassociation for 120 s.

[10] = target: T9, RXRα-LBD/SRC1_613–773 interaction (Homo sapiens, UniProt P19793); assay: SPR SRC1 recruitment assay; assay type: binding; settings: 1 µM RXRα-LBD incubated with compound 1 hour
T9 construct: His-tag (N); made in house; host or cells: E. coli BL21 (DE3)
T9 sequence (P19793 227-458 limits assumed): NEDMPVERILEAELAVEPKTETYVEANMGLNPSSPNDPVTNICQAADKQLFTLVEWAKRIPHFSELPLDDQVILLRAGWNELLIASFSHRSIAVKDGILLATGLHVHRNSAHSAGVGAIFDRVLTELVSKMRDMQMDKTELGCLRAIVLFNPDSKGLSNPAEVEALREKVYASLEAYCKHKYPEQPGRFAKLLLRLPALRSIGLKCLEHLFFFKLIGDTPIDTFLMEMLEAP
T9 sequence (Q15788 613-773 partner limits assumed): as the sequence (Q15788 613-773 partner limits assumed) above
Procedure: as §4

T1 sequence (P37231 whole entry): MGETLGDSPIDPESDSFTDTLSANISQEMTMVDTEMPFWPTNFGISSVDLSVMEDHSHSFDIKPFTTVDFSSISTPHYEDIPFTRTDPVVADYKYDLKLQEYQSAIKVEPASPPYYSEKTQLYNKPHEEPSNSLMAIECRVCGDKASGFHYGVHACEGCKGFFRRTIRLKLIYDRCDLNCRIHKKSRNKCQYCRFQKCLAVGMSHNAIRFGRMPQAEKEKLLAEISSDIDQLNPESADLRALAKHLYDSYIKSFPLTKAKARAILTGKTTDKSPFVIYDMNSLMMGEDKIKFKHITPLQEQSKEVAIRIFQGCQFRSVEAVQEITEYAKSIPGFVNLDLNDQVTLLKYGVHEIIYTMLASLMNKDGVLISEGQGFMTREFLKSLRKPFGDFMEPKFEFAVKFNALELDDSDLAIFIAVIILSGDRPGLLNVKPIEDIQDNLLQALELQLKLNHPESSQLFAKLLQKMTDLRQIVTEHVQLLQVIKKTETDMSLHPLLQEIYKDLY
T1 sequence (P19793 whole entry): as the sequence (P19793 whole entry) above

C=CC(C)(C)c1cc2cc3c(cc2oc1=O)O[C@H](C(C)(C)OC(C)=O)C3 [(+)-Rutamarin]
activity of PPAR-response element (PPRE) [1]: dose-dependently enhance | activity of RXR-response element (RXRE) [2]: dose-dependently enhance | IC50 ([3]; PTPs 0.3 µM, pNPP 5 mM, 25°C, NI: No inhibition at 100 µM): 6.4 µM | inhibition type (Lineweaver-Burk, double-reciprocal plots) ([3]; Rut 0, 50 and 75 µM, pNPP 0.5–10 mM): competitive inhibitor | IC50 [4]: > 100 µM | IC50 [5]: > 100 µM | IC50 [6]: 26.8 µM | IC50 [7]: > 100 µM | Relative glut4-pro activity ([8]; Fig. 6b, pSuperbasic control vector): 1.31 X | Relative glut4-pro activity ([8]; Fig. 6b, pSuperbasic-RXRα (rxrα siRNA)): 0.98 X | Relative glut4-pro activity ([8]; Fig. 6c, pSuperbasic control vector): 1.55 X | Relative glut4-pro activity ([8]; Fig. 6c, pSuperbasic-PPARγ (pparγ siRNA)): 1.39 X | effect on interaction between PPARγ-LBD and SRC1 [9]: cannot enhance | effect on interaction between RXRα-LBD and SRC1 [10]: efficiently enhances
